“And” between values parts separate entries of the source, which are not always exact repeats. Equal entries are not always repeated.
Assays:
Assay in all cases: KinaseSeeker competition binding assay
EGFR (G719S) = molecular target: T1, EGFR (G719S) (Homo sapiens, UniProt P00533, G719S)
T1 construct: made in house; host or cells: cell-free system (rabbit reticulocyte lysate)
Protocol: (§1) Compound Reno647 was profiled against the following panel of kinases at 2 μM using the KinaseSeeker™ assay: ABL1, AKT1, AKT2, AKT3, ALK, AURKA, AXL, BRAF, BTK, CDK2, CDK5, CDK7, CDK8, CSF1R, DDR1, EGFR del L747-P753 InsS, EGFR (L861Q), EGFR (G719S), EGFR, EGFR (L858R), EPHA2, EPHB2, FGFR3, FLT1/VEGFR1, FLT2/FGFR1, FLT3, FLT4/VEGFR3, GSK-3a, HER2, IGF1R, INSR, KIT, LIMK1, MET, MLK2/MAP3K10, RPS6KA5/MSK1, MUSK, p38a/MAPK12, PDGFRA, PDGFRB, PDK1, RET, RIPK2, RPS6KA1/RSK1, SRC, TEC, TESK1, TRKB, VEGFR2, and YES 1.
(§2) KinaseSeeker is a homogeneous competition binding assay where the displacement of an active site dependent probe by an inhibitor is measured by a change in luminescence signal (see FIG. 7). Luminescence readout translates into a highly sensitive and robust assay with low background and minimal interference from test compounds.
(§3) (Jester, Cox et al. 2010; Jester, Gaj et al. 2012): 10 mM stock of compound Reno647 was diluted in DMSO to a concentration of 50 μM. Prior to initiating a profiling campaign, the compound was evaluated for false positive against split-luciferase. The compound was then screened in duplicate against each of the kinases. For kinase assays, each Cfluc-Kinase was translated along with Fos-Nfluc using a cell-free system (rabbit reticulocyte lysate) at 30° C. for 90 min. A 24 μL aliquot of this lysate containing either 1 μL of DMSO (for no-inhibitor control) or compound solution in DMSO (2 LM final concentration) was incubated for 30 minutes at room temperature followed by 1 hour in the presence of a kinase specific probe. A 80 μL of luciferin assay reagent was added to each solution and luminescence was immediately measured on a luminometer.
(§4) The % Inhibition and % Activity Remaining were calculated using the following equations:
(§5) % inhibition=(ALUcontrol−ALUsample)×100
(§6) % activity=100−% inhibition.
(§7) The same assay design was used as described in example section 3.1.
(§8) 10 mM stock solutions of compound Reno647 was serially diluted in DMSO to make assay stocks. Prior to initiating IC50 determination, the test compound was evaluated for false positive against split-luciferase.
(§9) Reno647 was screened against 6 kinases (EGFR, EGFR del L747 P753 InsS, EGFR G719S, EGFR L858R, EGFR L861Q, RIPK2) at a minimum of 8 different concentrations in duplicate. For kinase assays, a 24 μL aliquot of lysate containing Cfluc-kinase and Fos-Nfluc was incubated for 30 minutes at room temperature with either 1 μL of DMSO (for no-inhibitor control) or compound solution in DMSO, followed by 1 hour incubation in the presence of a kinase specific probe. A 80 μL of luciferin assay reagent was added to each solution and luminescence was immediately measured on a luminometer.
(§10) % inhibition=(ALUcontrol−ALUsample)/ALcontrol×100
(§11) The % Activity was plotted against compound concentration and the IC50 was determined for each compound using an 8-point curve.

EGFR = molecular target: T2, EGFR (Homo sapiens, UniProt P00533)
T2 construct: made in house; host or cells: cell-free system (rabbit reticulocyte lysate)
Protocol: as §1, §2, §3, §4, §5, §6, §7, §8, §9, §10, §11

EGFR (L858R) = molecular target: T3, EGFR (L858R) (Homo sapiens, UniProt P00533, L858R)
T3 construct: made in house; host or cells: cell-free system (rabbit reticulocyte lysate)
Protocol: as §1, §2, §3, §4, §5, §6, §7, §8, §9, §10, §11

EGFR del L747-P753 Ins S = molecular target: T4, EGFR del L747-P753 Ins S (Homo sapiens, UniProt P00533, DEL747-752/P753S)
T4 construct: made in house; host or cells: cell-free system (rabbit reticulocyte lysate)
Protocol: as §1, §2, §3, §4, §5, §6, §7, §8, §9, §10, §11

EGFR(L861Q) = molecular target: T5, EGFR(L861Q) (Homo sapiens, UniProt P00533, L861Q)
T5 construct: made in house; host or cells: cell-free system (rabbit reticulocyte lysate)
Protocol: as §1, §2, §3, §4, §5, §6, §7, §8, §9, §10, §11

T4 sequence (P00533 with tags, fused parts or gaps DEL747-752/P753S): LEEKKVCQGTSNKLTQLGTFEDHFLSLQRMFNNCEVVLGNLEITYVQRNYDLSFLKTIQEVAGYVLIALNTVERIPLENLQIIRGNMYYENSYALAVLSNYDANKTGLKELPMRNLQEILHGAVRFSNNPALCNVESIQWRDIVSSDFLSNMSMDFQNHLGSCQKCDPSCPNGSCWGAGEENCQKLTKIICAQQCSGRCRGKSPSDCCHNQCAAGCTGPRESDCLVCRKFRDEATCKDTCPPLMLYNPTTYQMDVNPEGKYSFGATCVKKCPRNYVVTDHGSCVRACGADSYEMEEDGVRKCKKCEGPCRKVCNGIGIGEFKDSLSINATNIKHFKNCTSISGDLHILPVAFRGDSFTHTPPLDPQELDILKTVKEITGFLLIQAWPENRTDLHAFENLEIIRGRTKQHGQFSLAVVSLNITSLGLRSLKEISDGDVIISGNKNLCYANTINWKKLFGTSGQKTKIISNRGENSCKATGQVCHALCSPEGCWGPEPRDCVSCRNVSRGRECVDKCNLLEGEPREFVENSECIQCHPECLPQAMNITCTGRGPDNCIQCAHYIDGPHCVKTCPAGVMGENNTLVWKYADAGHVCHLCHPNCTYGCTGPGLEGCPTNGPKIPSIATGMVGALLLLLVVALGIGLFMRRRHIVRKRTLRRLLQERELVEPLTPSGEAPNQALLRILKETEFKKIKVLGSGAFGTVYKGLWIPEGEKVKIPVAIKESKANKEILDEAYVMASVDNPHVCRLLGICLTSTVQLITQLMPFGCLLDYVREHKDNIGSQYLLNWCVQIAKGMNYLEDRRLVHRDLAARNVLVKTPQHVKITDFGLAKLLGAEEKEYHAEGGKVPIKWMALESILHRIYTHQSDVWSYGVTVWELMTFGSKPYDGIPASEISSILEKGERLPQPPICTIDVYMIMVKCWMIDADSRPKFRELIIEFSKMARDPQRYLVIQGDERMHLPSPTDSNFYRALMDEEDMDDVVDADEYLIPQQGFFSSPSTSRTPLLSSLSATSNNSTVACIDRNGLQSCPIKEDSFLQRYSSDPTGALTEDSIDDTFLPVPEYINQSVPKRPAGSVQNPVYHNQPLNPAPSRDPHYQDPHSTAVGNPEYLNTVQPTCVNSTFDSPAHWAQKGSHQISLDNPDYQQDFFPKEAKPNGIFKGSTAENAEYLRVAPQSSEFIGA
T2 sequence (P00533 25-1210): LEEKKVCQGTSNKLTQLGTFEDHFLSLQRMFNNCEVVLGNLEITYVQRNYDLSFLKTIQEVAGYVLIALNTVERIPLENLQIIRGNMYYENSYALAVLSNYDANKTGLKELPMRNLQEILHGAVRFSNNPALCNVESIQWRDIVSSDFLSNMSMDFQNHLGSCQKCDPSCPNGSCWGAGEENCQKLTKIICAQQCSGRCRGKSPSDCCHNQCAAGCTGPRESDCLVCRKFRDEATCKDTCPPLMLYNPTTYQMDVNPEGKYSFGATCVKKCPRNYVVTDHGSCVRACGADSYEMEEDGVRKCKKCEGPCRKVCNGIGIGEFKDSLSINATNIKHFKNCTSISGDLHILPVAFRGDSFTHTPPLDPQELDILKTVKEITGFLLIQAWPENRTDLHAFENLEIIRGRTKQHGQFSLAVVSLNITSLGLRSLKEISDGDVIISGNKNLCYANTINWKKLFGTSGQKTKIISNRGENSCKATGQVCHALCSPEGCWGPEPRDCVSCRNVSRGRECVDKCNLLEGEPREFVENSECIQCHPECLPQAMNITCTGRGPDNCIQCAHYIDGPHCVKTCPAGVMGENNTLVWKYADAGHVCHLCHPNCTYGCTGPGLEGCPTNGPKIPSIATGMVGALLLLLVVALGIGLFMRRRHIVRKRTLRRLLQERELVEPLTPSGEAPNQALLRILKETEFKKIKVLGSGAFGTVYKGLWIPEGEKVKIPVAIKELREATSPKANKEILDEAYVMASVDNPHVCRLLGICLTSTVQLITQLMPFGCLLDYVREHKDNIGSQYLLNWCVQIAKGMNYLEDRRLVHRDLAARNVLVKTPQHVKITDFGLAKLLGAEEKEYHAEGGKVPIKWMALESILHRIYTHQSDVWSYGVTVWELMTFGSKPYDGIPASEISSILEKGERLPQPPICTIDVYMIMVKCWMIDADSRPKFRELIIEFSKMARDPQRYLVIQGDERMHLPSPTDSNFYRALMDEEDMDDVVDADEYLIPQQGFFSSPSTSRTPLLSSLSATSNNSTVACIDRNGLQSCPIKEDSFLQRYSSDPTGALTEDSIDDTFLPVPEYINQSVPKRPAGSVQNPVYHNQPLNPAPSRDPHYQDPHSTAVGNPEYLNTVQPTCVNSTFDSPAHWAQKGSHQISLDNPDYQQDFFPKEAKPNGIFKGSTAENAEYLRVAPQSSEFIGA
T3 sequence (P00533 25-1210 L858R): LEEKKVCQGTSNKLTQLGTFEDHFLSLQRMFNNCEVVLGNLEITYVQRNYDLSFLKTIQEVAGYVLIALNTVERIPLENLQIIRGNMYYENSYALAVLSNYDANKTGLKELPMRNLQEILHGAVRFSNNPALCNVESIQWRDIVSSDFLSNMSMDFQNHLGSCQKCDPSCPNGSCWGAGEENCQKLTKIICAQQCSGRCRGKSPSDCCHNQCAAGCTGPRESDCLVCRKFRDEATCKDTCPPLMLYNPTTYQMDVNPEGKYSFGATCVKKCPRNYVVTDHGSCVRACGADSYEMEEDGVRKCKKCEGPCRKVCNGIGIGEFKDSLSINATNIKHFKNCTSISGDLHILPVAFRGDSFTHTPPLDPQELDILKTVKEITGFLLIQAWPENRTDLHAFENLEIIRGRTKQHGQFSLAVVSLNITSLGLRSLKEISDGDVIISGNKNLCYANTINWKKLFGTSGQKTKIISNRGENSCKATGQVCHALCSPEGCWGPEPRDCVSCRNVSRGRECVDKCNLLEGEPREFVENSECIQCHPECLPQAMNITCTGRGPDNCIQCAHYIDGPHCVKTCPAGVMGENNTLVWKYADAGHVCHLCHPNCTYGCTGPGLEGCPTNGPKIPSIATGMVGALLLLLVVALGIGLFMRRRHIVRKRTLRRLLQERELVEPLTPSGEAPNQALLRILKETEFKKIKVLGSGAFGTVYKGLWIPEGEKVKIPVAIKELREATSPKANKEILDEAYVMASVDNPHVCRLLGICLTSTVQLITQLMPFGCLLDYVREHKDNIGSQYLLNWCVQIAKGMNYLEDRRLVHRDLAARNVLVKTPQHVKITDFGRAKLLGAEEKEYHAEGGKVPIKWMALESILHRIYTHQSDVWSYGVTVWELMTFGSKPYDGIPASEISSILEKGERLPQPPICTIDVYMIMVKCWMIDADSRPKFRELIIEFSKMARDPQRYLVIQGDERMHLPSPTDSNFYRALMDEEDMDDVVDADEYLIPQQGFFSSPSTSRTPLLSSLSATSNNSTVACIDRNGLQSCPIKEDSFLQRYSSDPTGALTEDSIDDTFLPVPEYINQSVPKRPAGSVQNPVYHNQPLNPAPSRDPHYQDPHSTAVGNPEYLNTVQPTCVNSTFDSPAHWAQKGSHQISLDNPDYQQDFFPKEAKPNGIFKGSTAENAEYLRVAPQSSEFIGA
T5 sequence (P00533 25-1210 L861Q): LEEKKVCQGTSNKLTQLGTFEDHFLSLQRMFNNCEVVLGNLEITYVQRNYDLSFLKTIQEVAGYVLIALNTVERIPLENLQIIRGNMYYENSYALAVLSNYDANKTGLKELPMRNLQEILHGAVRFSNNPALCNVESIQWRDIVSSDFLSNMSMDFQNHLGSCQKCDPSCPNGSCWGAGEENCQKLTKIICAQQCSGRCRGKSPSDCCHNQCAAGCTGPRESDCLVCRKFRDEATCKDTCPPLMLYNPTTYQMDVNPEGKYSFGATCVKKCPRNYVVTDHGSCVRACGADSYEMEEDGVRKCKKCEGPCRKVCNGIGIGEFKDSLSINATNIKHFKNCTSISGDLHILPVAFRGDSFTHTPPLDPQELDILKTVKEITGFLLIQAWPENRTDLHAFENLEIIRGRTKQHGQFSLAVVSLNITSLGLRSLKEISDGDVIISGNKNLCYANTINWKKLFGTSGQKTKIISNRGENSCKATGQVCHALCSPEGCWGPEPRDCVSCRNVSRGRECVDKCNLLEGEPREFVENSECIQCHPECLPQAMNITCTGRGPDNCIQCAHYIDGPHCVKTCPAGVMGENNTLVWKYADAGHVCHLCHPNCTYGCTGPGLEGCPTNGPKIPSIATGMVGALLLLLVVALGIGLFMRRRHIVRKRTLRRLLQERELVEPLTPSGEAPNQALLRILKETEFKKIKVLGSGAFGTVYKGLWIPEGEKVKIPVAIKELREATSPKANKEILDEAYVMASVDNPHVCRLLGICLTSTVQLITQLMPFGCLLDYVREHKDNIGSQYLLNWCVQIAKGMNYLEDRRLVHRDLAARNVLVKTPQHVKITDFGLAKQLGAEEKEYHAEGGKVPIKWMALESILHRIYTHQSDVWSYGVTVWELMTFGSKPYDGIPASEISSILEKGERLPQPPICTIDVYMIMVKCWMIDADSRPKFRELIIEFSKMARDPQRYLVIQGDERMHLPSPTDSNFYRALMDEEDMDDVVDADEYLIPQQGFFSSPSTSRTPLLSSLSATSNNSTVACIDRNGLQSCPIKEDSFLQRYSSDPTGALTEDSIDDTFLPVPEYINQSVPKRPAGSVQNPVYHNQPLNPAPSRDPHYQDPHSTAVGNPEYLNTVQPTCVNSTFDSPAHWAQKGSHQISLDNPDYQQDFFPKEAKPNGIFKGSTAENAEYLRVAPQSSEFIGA

**Q.** How did the remaining binding at 2 µM (EGFR (G719S); 2 μM, EGFR (G719S)) turn out when `C#Cc1cccc(Nc2ncnc3cc(OCCOC)c(NC(=O)c4ccc(F)c([N+](=O)[O-])c4)cc23)c1` [Reno647, 4-Fluoro-N-[4-(3-ethynyl-phenylamino)-7-(2-methoxy-ethoxy)-quinazolin-6-yl]-3-nitro-benzamide] was run?
**A.** The remaining binding at 2 µM was 30.2%.

**Q.** And the IC50 (EGFR (G719S); 8-point curve, duplicate)?
**A.** The IC50 was 971 nM.

**Q.** And the remaining binding at 2 µM (EGFR; 2 μM, wild-type EGFR)?
**A.** Its remaining binding at 2 µM is 66.7%.

**Q.** What about the IC50 (EGFR; 8-point curve, duplicate, read-out: IC50 wild-type of EGFR) of the same molecule?
**A.** The IC50 was 25 µM.

**Q.** And the remaining binding at 2 µM (EGFR (L858R); 2 μM, EGFR (L858R))?
**A.** Its remaining binding at 2 µM is 7.2%.

**Q.** What about the IC50 (EGFR (L858R); 8-point curve, duplicate) of the same molecule?
**A.** The IC50 was 159 nM.

**Q.** And the remaining binding at 2 µM (EGFR del L747-P753 Ins S; 2 μM, EGFR del L747-P753 Ins S)?
**A.** The remaining binding at 2 µM was 14.8%.

**Q.** What about the IC50 (EGFR del L747-P753 Ins S; 8-point curve, duplicate, read-out: IC50 EGFR del L747-P753 InsS) of the same molecule?
**A.** Its IC50 is 77.7 nM and 77 nM.

**Q.** And the remaining binding at 2 µM (EGFR(L861Q); 2 μM, EGFR(L861Q))?
**A.** Its remaining binding at 2 µM is 20.7%.

**Q.** And the IC50 (EGFR(L861Q); 8-point curve, duplicate)?
**A.** Its IC50 is 574 nM.

Reference: patent publication US20190169134A1, “NOVEL CLASS OF QUINOLONE HETEROCYCLIC AROMATIC MOLECULES FOR CANCER TREATMENT” (RenoTarget Therapeutics, Inc., priority 2016, published 2019)
